Source: patent US4673668A, “Aminonaphthacene derivatives” (Sumitomo Pharmaceuticals Company, priority 1982, dated 1987)
“And” between values parts separate entries of the source, which are not always exact repeats. Equal entries are not always repeated. Structures can show the parent of a compound that is named as a salt. Where two headings read alike, the source gives them in different places.

Legend:
[1] = system: P388 mouse leukemia cells; assay: Effect against survival time of mouse transplanted with P388 mouse leukemia cells (in vivo test, intraperitoneal administration); set-up: species or system mouse (CDF1); conditions: intraperitoneally, first and fifth days
Excerpt: (2) Effect against survival time of mouse transplanted with P388 mouse leukemia cells (in vivo test, intraperitoneal administration)
(§1) Tumor: P388 mouse leukemia.
(§2) Animals: CDF1 (BALB/C×DBA/2) mouse .male.5 weeks breeding, one group: 6 mice.
(§3) Number of cells transplanted: 10^6 /mouse, intraperitoneal administration.
Dosage: Test compound administered twice, i.e. the first and fifth days, intraperitoneally. Test compound hardly soluble or insoluble in water is applied in a solution or a suspension form by use of Tween 80.
(§4) Evaluation: Increase life span (ILS) is calculated on the basis of median survival times (T) and (C) of treated groups and controls, repsctively: [formula] (3) Effect against survival times of mouse transplanted with P388 mouse leukemia cells (in vivo test; intravenous or per os administration)

[2] = system: P388 mouse leukemia cells; assay: Effect against P388 mouse leukemia cell (in vitro test); type: cell-based
Description: (1) Effect against P388 mouse leukemia cell (in vitro test)
P388 leukemia cells have been subcultured in abdominal cavity of DBA/2 mouse. […] A suspension of 5×10^4 cells/ml containing a test compound is prepared and is cultured in a wet atmosphere containing 5% CO2 at 37° C. for 48 hours.
Number of cells before and after culturing is counted by coulter counter. Proliferative ratio is defined as ratio of the increase in cells after proliferation for 48 hours to an increase in cells cultured in a suspension containing no test compound. Inhibition ratio (IR) is defined as follows: […]
1--(proliferative ratio).
In other words, [formula] where C^treated : number of cells after culturing for 48 hours in the presence of a treated compound
C^non : number of cells after culturing for 48 hours in the absence of a test compound
Co : number of cells when culturing is initiated.

[3] = system: P388 mouse leukemia cells; assay: Effect against survival times of mouse transplanted with P388 mouse leukemia cells (in vivo test; per os administration); set-up: species or system mouse (CDF1); conditions: po, once, first day
Description: as §1, §2, §3, §4
(§5) Similar to (2), but a test compound administered once, i.e., only the first day, intravenously or orally.

[4] = Toxicity test (maximum tolerated dose); conditions: mouse, in vivo; single application; BALB/C mice, ten a group; largest amount where no death is seen
Excerpt: The largest amount where no death of mice is seen is defined as maximum tolerated dose.

[5] = system: P388 mouse leukemia cells; assay: Effect against survival times of mouse transplanted with P388 mouse leukemia cells (in vivo test; intravenous); set-up: species or system mouse (CDF1); conditions: once, first day
Description: as §1, §2, §3, §4, §5

[6] = P388, 1 γ/ml, 48 hours, read-out: Inhibition ratio (IR)
[7] = P388, 10^-1 γ/ml, 48 hours, read-out: Inhibition ratio (IR)
[8] = P388, 10 γ/ml, 48 hours, read-out: Inhibition ratio (IR)
[9] = P388, 48 h, read-out: Inhibition ratio (IR), 1 γ/ml
[10] = P388, 48 h, read-out: Inhibition ratio (IR), 10^-1 γ/ml
[11] = P388, 48 h, read-out: Inhibition ratio (IR), 10 γ/ml

SMILES: CC(=O)[C@]1(N)Cc2c(O)c3c(c(O)c2[C@@H](OC2CCCCO2)C1)C(=O)c1ccccc1C3=O (single isomer, unassigned) [Example 10-A, 7-0-tetrahydropyranyl-9α-amino-9β-acetyl-7,8,9,10-tetrahydro-6,7α,11-trihydroxy-5,12-naphthacenedione]
- Increase life span (ILS) ([1]; 6.25 mg/kg): 25%
- Increase life span (ILS) ([1]; 12.5 mg/kg): 77%
- Increase life span (ILS) ([1]; 25 mg/kg): 286%
- inhibition at 1 µg/mL [2, 6]: 94.4%
- inhibition at 0.1 µg/mL [2, 7]: 94.6%
- inhibition at 10 µg/mL [2, 8]: 89%

SMILES: CC(=O)O[C@H]1C[C@H](O[C@H]2C[C@](N)(C(C)=O)Cc3c(O)c4c(c(O)c32)C(=O)c2ccccc2C4=O)OC[C@H]1OC(C)=O [11 (hydrochloride), d-7α-[(2-deoxy-3,4-di-0-acetyl-β-D-erythro-pentapyranosyl)oxy]-9α-amino-9β-acetyl-7,8,9,10-tetrahydro-6,11-dihydroxy-5,12-naphthacenedione]
- ILS ([3]; 17.5 mg/kg): 40%
- ILS ([3]; 35 mg/kg): 63%
- ILS ([3]; 70 mg/kg): -42%
- Toxic Death ([3]; 70 mg/kg): 6/6
- Increase life span (ILS) ([1]; 6.25 mg/kg): 37%
- Increase life span (ILS) ([1]; 12.5 mg/kg): 123%
- Increase life span (ILS) ([1]; 25 mg/kg): 280%
- MTD [4]: 40 mg/kg
- inhibition at 1 µg/mL [2, 6]: 97.9%
- inhibition at 0.1 µg/mL [2, 7]: 1.9%
- inhibition at 10 µg/mL [2, 8]: 100%
- ILS ([5]; 10 mg/kg): 35%
- ILS ([5]; 20 mg/kg): 67%
- ILS ([5]; 40 mg/kg): -45%
- Toxic Death ([5]; 40 mg/kg): 6/6

SMILES: CC(=O)[C@]1(N)Cc2c(O)c3c(c(O)c2[C@@H](O[C@H]2C[C@H](O)[C@H](O)CO2)C1)C(=O)c1ccccc1C3=O [12 (hydrochloride), d-7α-[(2-deoxy-β-D-erythro-pentapyranosyl)oxy]-9αamino-9β-acetyl-7,8,9,10-tetrahydro-6,11-dihydroxy-5,12-naphthacenedione]
- ILS ([3]; 17.5 mg/kg): 31%
- ILS ([3]; 35 mg/kg): 50%
- ILS ([3]; 70 mg/kg): 86%
- MTD [4]: 32 mg/kg
- inhibition at 1 µg/mL [2, 9]: 83.8%
- inhibition at 0.1 µg/mL [2, 10]: 27.5%
- inhibition at 10 µg/mL [2, 11]: 85%
- ILS ([5]; 10 mg/kg): 32%
- ILS ([5]; 20 mg/kg): 60%
- ILS ([5]; 40 mg/kg): -43%
- Toxic Death ([5]; 40 mg/kg): 6/6

SMILES: CC[C@@]1(O)C[C@H](O[C@H]2C[C@H](N(C)C)[C@H](O[C@H]3C[C@H](O)[C@H](O[C@H]4CCC(=O)[C@H](C)O4)[C@H](C)O3)[C@H](C)O2)c2c(cc3c(c2O)C(=O)c2c(O)cccc2C3=O)[C@H]1C(=O)OC [ACM-A, AclacinomycinA, reference compound]
- ILS ([3]; 10.7 mg/kg): 11%
- ILS ([3]; 21.5 mg/kg): 25%
- ILS ([3]; 43 mg/kg): 37%

SMILES: COc1cccc2c1C(=O)c1c(O)c3c(c(O)c1C2=O)C[C@@](O)(C(=O)CO)C[C@@H]3O[C@H]1C[C@H](N)[C@H](O)[C@H](C)O1 [ADR, Adriamycin, reference compound]
- Increase life span (ILS) ([1]; 1 mg/kg, positive control): 58% and 78% and 57%
- Increase life span (ILS) ([1]; 2 mg/kg, positive control): 90% and 84%
- Increase life span (ILS) ([1]; 4 mg/kg, positive control): 133%
- MTD [4]: 12.5 mg/kg
- inhibition at 1 µg/mL [2, 9]: 85.9%
- inhibition at 0.1 µg/mL [2, 10]: 85%
- inhibition at 0.01 µg/mL ([2]; P388, 48 h, read-out: Inhibition ratio (IR), 10^-2 γ/ml): 69.2%
- inhibition at 10 µg/mL [2, 11]: 90.6%
- ILS ([5]; 3.75 mg/kg): 21%
- ILS ([5]; 7.5 mg/kg): 47%
- ILS ([5]; 15 mg/kg): 83%

SMILES: CC(=O)O[C@@H]1[C@H](C)O[C@@H](O[C@H]2C[C@](N)(C(C)=O)Cc3c(O)c4c(c(O)c32)C(=O)c2ccccc2C4=O)C[C@@H]1OC(C)=O [Example 1, d-7α-[(3,4-di-0-acetyl-2,6-dideoxy-α-L-lyxo-hexopyranosyl)oxy]-9α-amino-9β-acetyl-7,8,9,10-tetrahydro-6,11-dihydroxy-5,12-naphthacenedione]
- Increase life span (ILS) ([1]; 6.25 mg/kg): 42%
- Increase life span (ILS) ([1]; 12.5 mg/kg): 86%
- Increase life span (ILS) ([1]; 25 mg/kg): 152%
- inhibition at 1 µg/mL [2, 6]: 84.1%
- inhibition at 0.1 µg/mL [2, 7]: 32.4%
- inhibition at 10 µg/mL [2, 8]: 82.7%

SMILES: CC(=O)[C@]1(N)Cc2c(O)c3c(c(O)c2[C@@H](O[C@H]2C[C@H](O)[C@H](O)[C@H](C)O2)C1)C(=O)c1ccccc1C3=O [Example 2, d-7α-[(2,6-dideoxy-α-L-lyxo-lexopyranosyl)oxy]-9α-amino-9β-acetyl-7,8,9,10-tetrahydro-6,11-dihydroxy-5,12-naphthacenedione]
- Increase life span (ILS) ([1]; 6.25 mg/kg): 135%
- inhibition at 1 µg/mL [2, 6]: 84.5%
- inhibition at 0.1 µg/mL [2, 7]: 44.1%
- inhibition at 10 µg/mL [2, 8]: 89.9%

SMILES: CC(=O)[C@]1(N)Cc2c(O)c3c(c(O)c2[C@@H](O[C@H]2C[C@H](N)[C@H](O)[C@H](C)O2)C1)C(=O)c1c(O)cccc1C3=O [Example 25 (dihydrochloride), d-7α-[(2,3,6-trideoxy-3-amino-α-L-lyxo-hexopyranosyl)oxy]-9α-amino-9β-acetyl-4,6,11-trihydroxy-7,8,9,10-tetrahydro-5,12-naphthacenedione]
- inhibition at 1 µg/mL [2, 6]: 95.7%
- inhibition at 0.1 µg/mL [2, 7]: 89%
- inhibition at 10 µg/mL [2, 8]: 99.4%

SMILES: CC(O)[C@]1(N)Cc2c(O)c3c(c(O)c2[C@@H](OC2CCCCO2)C1)C(=O)c1ccccc1C3=O (stereo partly drawn) [Example 29, 7-0-tetrahydropyranyl-9α-amino-9β-(1-hydroxyethyl)-7,8,9,10-tetrahydro-6,7α,11-trihydroxy-5,12-naphthacenedione]
- Increase life span (ILS) ([1]; 3.13 mg/kg): 66%
- Increase life span (ILS) ([1]; 6.25 mg/kg): 126%
- inhibition at 1 µg/mL [2, 6]: 92.9%
- inhibition at 0.1 µg/mL [2, 7]: 93.5%
- inhibition at 0.01 µg/mL ([2]; P388, 10^-2 γ/ml, 48 hours, read-out: Inhibition ratio (IR)): 40.1%
- inhibition at 10 µg/mL [2, 8]: 94.1%
